Test results published in patent US7078403B1, “Antiviral agents” (Biota Scientific Management Pty Ltd., priority 1999, dated 2006).
≈ marks a conversion by molar mass, not a printed value. Where two headings read alike, the source gives them in different places.

Assays:
[1] = tested on: HRV type 2; experiment: Inhibition of viral cytopathic effect (CPE), visual scoring or neutral red, HRV type 2 in KB cells; assay type: cell-based, human rhinovirus; details: for EC50: Enterovirus, HRV type 2 in KB cells, CPE inhibition, read-out: Activity on Rhinovirus Type 2 EC50; for Activity on Rhinovirus Type 2 SI: selectivity index = CC50 or MTC divided by EC50, HRV type 2, KB cells
[2] = tested on: human embryo lung (MRC-5) cells
[3] = in vitro; details: human
[4] = tested on: HRV-2; experiment: Time of addition study, CPE inhibition of HRV-2 in KB cells; assay type: cell-based, human rhinovirus; details: Rhinovirus A, read-out: EC50 (visual assay)
[5] = tested on: HRV type 1A; experiment: Inhibition of viral cytopathic effect (CPE), visual scoring or neutral red, HRV type 1A in MRC-5 cells; assay type: cell-based, human rhinovirus; details: for EC50: Enterovirus, MRC5, HRV type 1A in MRC-5 cells, CPE inhibition, read-out: Activity on Rhinovirus Type 1A EC50; for Activity on Rhinovirus Type 1A SI: selectivity index = CC50 or MTC divided by EC50, HRV type 1A, MRC-5 cells
[6] = tested on: Enterovirus 70; experiment: Activity on Enterovirus 70 in mammalian cell culture assay; assay type: cell-based; details: Enterovirus D
[7] = tested on: Coxsackie A21; experiment: Activity on Coxsackie A21 in mammalian cell culture assay; assay type: cell-based
[8] = tested on: Human Rhinovirus strains 1B, 3, 4, 5, 6, 8, 9, 11, 12, 13, 16, 17, 21, 25, 30, 32, 33, 38, 39, 40, 42, 43, 45, 48, 52, 54, 56, 57, 59, 60, 63, 67, 68, 69, 72 …; experiment: Standard CPE reduction assay against a panel of Human Rhinovirus strains; assay type: cell-based; details: nearly all HRV strains tested
[9] = tested on: Enterovirus strains Poliovirus 2, Echoviruses 2, 3, 9, 21 and 30 and Coxsackie B3; assay type: cell-based; details: all Enterovirus strains tested
[10] = in vitro
[11] = in vitro; remark: listed apart in the source
[12] = tested on: human embryo lung (MRC-5) cells; experiment: Cytotoxicity (CC50 or MTC) in uninfected MRC-5 cells; details: unit not given
[13] = mammalian cell culture (cell line not stated)

In the case of `CCOC(=O)c1ccc(OCCC2CCN(c3ccc(C)nn3)CC2)cc1` [Pirodavir, ethyl 4-[2-[1-(6-methyl-3-pyridazinyl)-4-piperidinyl]-ethoxy]benzoate], the EC50 [1] is reported as 0.003 µg/mL (≈ 0.00812 µM), the “Activity on Rhinovirus Type 2 SI” value [1] is reported as over 300 and the “Activity on Rhinovirus Type 1A MTC” value [2] is reported as over 10.00. It also gave a CC50 [3] of over 1 µg/mL, an EC50 ([4]; HRV2, time of addition 0 hr) of 0.004 µg/mL (≈ 0.0108 µM) and an EC50 ([4]; HRV2, time of addition 1 hr post-virus) of 0.1 µg/mL (≈ 0.271 µM). The EC50 ([4]; HRV2, time of addition 2 hr post-virus) was over 0.1 µg/mL, the EC50 ([4]; HRV2, time of addition 4 hr post-virus) was over 0.1 µg/mL and the EC50 ([4]; HRV2, time of addition 6 hr post-virus) was over 0.1 µg/mL. The EC50 ([4]; HRV2, time of addition 8 hr post-virus) was over 0.1 µg/mL, the EC50 ([4]; HRV2, time of addition 24 hr post-virus) was over 0.1 µg/mL and the EC50 ([4]; HRV2, time of addition −1 hr (pre-treatment)) was 0.023 µg/mL (≈ 0.0623 µM). The EC50 [5] was 0.02 µg/mL (≈ 0.0541 µM) and the “Activity on Rhinovirus Type 1A SI” value [5] was 555.74.
`CCO/N=C/c1ccc(OCCC2CCN(c3ccc(Cl)nn3)CC2)cc1` [Compound 1, 4-{2-[1-(6-Chloro-3-pyridazinyl)4-piperidinyl]ethoxy}benzaldehyde O-ethyloxime] gave an EC50 [6] of 0.03 µg/mL (≈ 0.0771 µM), an EC50 [7] of under 0.000156 µg/mL and an EC50 [1] of under 0.001 µg/mL. For the same compound, the “Activity on Rhinovirus Type 2 SI” value [1] was over 1000, the “Inhibitory activity compared with Pirodavir” value [8] was “superior activity to Pirodavir” and the CC50 [3] was over 1 µg/mL. For the same compound, the “Inhibitory activity compared with Pirodavir” value [9] was “superior activity to Pirodavir”, the CC50 [10] was over 50 µg/mL and the CC50 [11] was over 50 µg/mL.
For `NC(=O)c1ncn([C@@H]2O[C@H](CO)[C@@H](O)[C@H]2O)n1` [Ribavirin], the EC50 [6] was over 100 µg/mL, the EC50 [7] was over 100 µg/mL and the “Activity on Rhinovirus Type 1A MTC” value [12] was 98.3. For the same compound, the CC50 [10, 13] was over 100 µg/mL, the CC50 [11, 13] was over 100 µg/mL and the EC50 [5] was 1.93 µg/mL (≈ 7.9 µM). For the same compound, the “Activity on Rhinovirus Type 1A SI” value [5] was 51.03.
